In US7803825B2, “Aminoalkylazole derivatives as histamine-3 antagonists” (Wyeth LLC, priority 2007, dated 2010):
Where a name gives a salt, the structure may show the parent alone.

Target: T1, histamine-3 (H3) receptor (Homo sapiens, UniProt Q9Y5N1)
T1 construct: expressed in transfected cells; host or cells: HEK293T
Experiment: Methyl Histamine Binding in Human Histamine-3 Receptor Cell Line
Settings: membranes of stably transfected HEK293T cells, radioligand 1 nM, Ki from IC50 by Cheng-Prusoff
Description: Evaluation of Methyl Histamine Binding in Human Histamine-3 Receptor Cell Line
The affinity of test compounds for the histamine-3 (H3) receptor is evaluated in the following manner. Stably transfected HEK293T cells are grown in DMEM containing 10% heat inactivated FBS and G-418 (500 ug/ml). Cells are scraped from the plate, transferred to centrifuge tubes, washed one time in PBS by centrifugation in a Sorvall RT7 Plus centrifuge (2000 rpm 10 minutes, 4° C.). The resulting pellets are stored at 80° C. until ready for use. Cells are re-suspended in buffer (50 mM Tris pH=7.5) and placed in a Dounce homogenizer, douncing ten times to homogenize cells. The homogenate is spun down by centrifugation (Sorvall RT7 Plus, 1800 rpm 10 minutes, 4° C.). The supernatant is placed in a Corex tube and spun down by centrifugation (Sorvall RC 5c Plus, 17,000 rpm 20 minutes, 4° C.). The pellet is resuspended in buffer (50 mM Tris, pH 7.5). Protein concentration (ug/ul) is determined using the Micro-BCA Protein Determination. The binding assay is set up in a 96 well microtiter plate in a total volume of 250 uL. Non-specific binding is determined in the presence of 10 uM clobenpropit. The final radioligand concentration is 1 nM. The test compound is serially diluted using the Beckman Biomek2000 to a final approximate range of 100 uM to 100 pM. Membranes are suspended in buffer, homogenized in 2 bursts of ten seconds using a Vitris mechanical homogenizer set at power setting 5. Ten μg of membranes are added to each well. Following a one hour incubation at 30° C., the reaction is terminated by the addition of ice cold buffer and rapid filtration with a Packard Filtermate Harvester through a GF/B filter pre-soaked with 1% PEI for one hour. The plate is dried for one hour at 37° C. and 60 μL Microscint Scintillant is added to each well. The CPM per well is measured on a Packard Top Count NXT. Ki values are determined in nM. The Ki is calculated from the IC50 (i.e. the concentration of competing ligand which displaces 50% of the specific binding of the radioligand). CPM values are expressed as % specific binding and plotted vs compound concentration. A curve is fitted using a four-parameter logistic fit and the IC50 value is determined. The Ki is calculated from this using the Cheng-Prusoff equation: […]=IC50/1+(L/Kd) where L=concentration of free radioligand used in the assay, and Kd is the dissociation constant of the radioligand for the receptor. L is determined for each experiment by counting an aliquot of the diluted radioligand (corresponding to that added to each well) and the Kd has previously been determined under identical conditions for this cell line/radioligand.

T1 sequence (Q9Y5N1 whole entry): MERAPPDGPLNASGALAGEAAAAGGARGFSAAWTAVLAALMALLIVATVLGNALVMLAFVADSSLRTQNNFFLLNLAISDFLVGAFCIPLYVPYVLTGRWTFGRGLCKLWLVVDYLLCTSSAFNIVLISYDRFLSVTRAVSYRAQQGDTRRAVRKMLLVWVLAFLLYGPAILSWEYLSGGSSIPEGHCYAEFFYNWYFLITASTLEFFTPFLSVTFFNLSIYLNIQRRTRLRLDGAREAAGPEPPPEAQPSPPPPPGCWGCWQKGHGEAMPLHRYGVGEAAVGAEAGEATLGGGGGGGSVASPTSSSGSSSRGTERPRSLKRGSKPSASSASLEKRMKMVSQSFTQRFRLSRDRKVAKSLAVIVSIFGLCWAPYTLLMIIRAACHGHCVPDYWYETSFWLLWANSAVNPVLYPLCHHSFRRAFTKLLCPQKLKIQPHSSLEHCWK

Row | SMILES | Ki
1 | c1ccc2c(c1)ncn2Cc1ccc(-c2nc(CN3CCCC3)cs2)cc1 [Example 71, 1-{4-[4-(Pyrrolidin-1-ylmethyl)-1,3-thiazol-2-yl]benzyl}-1H-benzimidazole Hydrochloride] | 10.1 to 25 nM
2 | c1ccc2c(c1)ccn2Cc1ccc(-c2nc(CN3CCCC3)co2)cc1 [Example 81, 1-{4-[4-(pyrrolidin-1-ylmethyl)-1,3-oxazol-2-yl]benzyl}-1H-indole Hydrochloride] | 50.1 to 100 nM
3 | c1ccc2c(c1)cnn2Cc1ccc(-c2nc(CN3CCCC3)co2)cc1 [Example 88, 1-{4-[4-(pyrrolidin-1-ylmethyl)-1,3-oxazol-2-yl]benzyl}-1H-indazole] | 50.1 to 100 nM
4 | C[C@@H]1CCCN1Cc1coc(-c2ccc(Cn3ncc4ccccc43)cc2)n1 [Example 94, 1-[4-(4-{[(2R)-2-methylpyrrolidin-1-yl]methyl}-1,3-oxazol-2-yl)benzyl]-1H-indazole] | 50.1 to 100 nM
5 | C[C@@H]1CCCN1Cc1coc(-c2ccc(Cn3ncc4cc(F)ccc43)cc2)n1 [Example 95, 5-fluoro-1-[4-(4-{[(2R)-2-methylpyrrolidin-1-yl]methyl}-1,3-oxazol-2-yl)benzyl]-1H-indazole] | 50.1 to 100 nM
6 | C[C@@H]1CCCN1Cc1coc(-c2ccc(Cn3ncc4ccc(F)cc43)cc2)n1 [Example 96, 6-fluoro-1-[4-(4-{[(2R)-2-methylpyrrolidin-1-yl]methyl}-1,3-oxazol-2-yl)benzyl]-1H-indazole] | 50.1 to 100 nM
7 | C[C@H]1CCCN1Cc1coc(-c2ccc(Cn3ncc4ccc(F)cc43)cc2)n1 [Example 99, 6-fluoro-1-[4-(4-{[(2S)-2-methylpyrrolidin-1-yl]methyl}-1,3-oxazol-2-yl)benzyl]-1H-indazole] | 10.1 to 25 nM
8 | Fc1ccc2c(cnn2Cc2ccc(-c3nc(CN4CCCC4)co3)cc2)c1 [Example 100, 5-fluoro-1-{4-[4-(pyrrolidin-1-ylmethyl)-1,3-oxazol-2-yl]benzyl}-1H-indazole] | 10.1 to 25 nM
9 | Fc1ccc2cnn(Cc3ccc(-c4nc(CN5CCCC5)co4)cc3)c2c1 [Example 101, 6-fluoro-1-{4-[4-(pyrrolidin-1-ylmethyl)-1,3-oxazol-2-yl]benzyl}-1H-indazole] | 25.1 to 50 nM
10 | c1ccc2c(c1)ncn2Cc1ccc(-c2ncc(CN3CCCC3)o2)cc1 [Example 104, 1-{4-[5-(pyrrolidin-1-ylmethyl)-1,3-oxazol-2-yl]benzyl}-1H-benzimidazole] | > 100 nM
11 | c1ccc2c(c1)ncn2Cc1ccc(-c2ncc(CN3CCCCC3)o2)cc1 [Example 107, 1-{4-[5-(piperidin-1-ylmethyl)-1,3-oxazol-2-yl]benzyl}-1H-benzimidazole] | > 100 nM
12 | C[C@@H]1CCCN1Cc1cnc(-c2ccc(Cn3cnc4ccccc43)cc2)o1 [Example 108, 1-[4-(5-{[(2R)-2-methylpyrrolidin-1-yl]methyl}-1,3-oxazol-2-yl)benzyl]-1H-benzimidazole] | 25.1 to 50 nM
13 | CC1CCCN(Cc2cnc(-c3ccc(Cn4cnc5ccccc54)cc3)o2)C1 (centres unmarked) [Example 109, 1-(4-{5-[(3-methylpiperidin-1-yl)methyl]-1,3-oxazol-2-yl}benzyl)-1H-benzimidazole] | > 100 nM
14 | CC1(C)CC2CC(C)(CN2Cc2cnc(-c3ccc(Cn4cnc5ccccc54)cc3)o2)C1 (centres unmarked) [Example 110, 1-(4-{5-[(1,3,3-trimethyl-6-azabicyclo[3.2.1]oct-6-yl)methyl]-1,3-oxazol-2-yl}benzyl)-1H-benzimidazole] | > 100 nM
15 | c1ccc2c(c1)ncn2Cc1ccc(-c2ncc(CN3CCCCCC3)o2)cc1 [Example 111, 1-{4-[5-(azepan-1-ylmethyl)-1,3-oxazol-2-yl]benzyl}-1H-benzimidazole] | > 100 nM
16 | CCN(C)Cc1cnc(-c2ccc(Cn3cnc4ccccc43)cc2)o1 [Example 112] | > 100 nM
17 | CCN(CC)Cc1cnc(-c2ccc(Cn3cnc4ccccc43)cc2)o1 [Example 113, N-({2-[4-(1H-benzimidazol-1-ylmethyl)phenyl]-1,3-oxazol-5-yl}methyl)-N-ethylethanamine] | > 100 nM
18 | C[C@@H]1CCCN1Cc1coc(-c2ccc(Cn3c(C(F)(F)F)nc4ccccc43)cc2)n1 [Example 116, 1-[4-(4-{[(2R)-2-methylpyrrolidin-1-yl]methyl}-1,3-oxazol-2-yl)benzyl]-2-(trifluoromethyl)-1H-benzimidazole] | 10.1 to 25 nM
19 | C[C@H]1CCCN1Cc1coc(-c2ccc(Cn3c(C(F)(F)F)nc4ccccc43)cc2)n1 [Example 118, 1-[4-(4-{[(2S)-2-methylpyrrolidin-1-yl]methyl}-1,3-oxazol-2-yl)benzyl]-2-(trifluoromethyl)-1H-benzimidazole] | 10.1 to 25 nM
20 | C[C@@H]1CCCN1Cc1coc(-c2ccc(Cn3c(-c4ccccc4)nc4ccccc43)cc2)n1 [Example 119, 1-[4-(4-{[(2R)-2-methylpyrrolidin-1-yl]methyl}-1,3-oxazol-2-yl)benzyl]-2-phenyl-1H-benzimidazole] | 10.1 to 25 nM
21 | FC(F)(F)c1nc2ccccc2n1Cc1ccc(-c2nc(CN3CCCCCC3)co2)cc1 [Example 120, 1-{4-[4-(azepan-1-ylmethyl)-1,3-oxazol-2-yl]benzyl}-2-(trifluoromethyl)-1H-benzimidazole] | 10.1 to 25 nM
22 | c1ccc(-c2nc3ccccc3n2Cc2ccc(-c3nc(CN4CCCCCC4)co3)cc2)cc1 [Example 121, 1-{4-[4-(azepan-1-ylmethyl)-1,3-oxazol-2-yl]benzyl}-2-phenyl-1H-benzimidazole] | 25.1 to 50 nM
23 | FC(F)(F)c1nc2ccccc2n1Cc1ccc(-c2nc(CN3CCCCC3)co2)cc1 [Example 122, 1-{4-[4-(piperidin-1-ylmethyl)-1,3-oxazol-2-yl]benzyl}-2-(trifluoromethyl)-1H-benzimidazole] | 10.1 to 25 nM

Continued, values first:

Row | Ki | SMILES
24 | ≤ 10 nM | Cn1c(Cc2ccc(-c3nc(CN4CCCC4)co3)cc2)nc2ccccc21 [Example 67, 1-Methyl-2-{4-[4-(pyrrolidin-1-ylmethyl)-1,3-oxazol-2-yl]benzyl}-1H-benzimidazole Fumarate]
25 | ≤ 10 nM | CC1CCCN1Cc1csc(-c2ccc(Cn3cnc4ccccc43)cc2)n1 (centres unmarked) [Example 72, 1-(4-{4-[(2-methylpyrrolidin-1-yl)methyl]-1,3-thiazol-2-yl}benzyl)-1H-benzimidazole]
26 | ≤ 10 nM | c1ccc2c(c1)ncn2Cc1ccc(-c2nc(CN3CCCCC3)cs2)cc1 [Example 73, 1-{4-[4-(piperidin-1-ylmethyl)-1,3-thiazol-2-yl]benzyl}-1H-benzimidazole]
27 | ≤ 10 nM | c1ccc2c(c1)ncn2Cc1ccc(-c2nc(CN3CCCCCC3)cs2)cc1 [Example 74, 1-{4-[4-(azepan-1-ylmethyl)-1,3-thiazol-2-yl]benzyl}-1H-benzimidazole]
28 | ≤ 10 nM | C[C@H]1CCCN1Cc1coc(-c2ccc(Cn3ncc4ccccc43)cc2)n1 [Example 97, 1-[4-(4-{[(2S)-2-methylpyrrolidin-1-yl]methyl}-1,3-oxazol-2-yl)benzyl]-1H-indazole]
29 | ≤ 10 nM | C[C@H]1CCCN1Cc1coc(-c2ccc(Cn3ncc4cc(F)ccc43)cc2)n1 [Example 98, 5-fluoro-1-[4-(4-{[(2S)-2-methylpyrrolidin-1-yl]methyl}-1,3-oxazol-2-yl)benzyl]-1H-indazole]
30 | ≤ 10 nM | NCc1ccc2c(cnn2Cc2ccc(-c3nc(CN4CCCC4)co3)cc2)c1 [Example 102, 1-(1-{4-[4-(pyrrolidin-1-ylmethyl)-1,3-oxazol-2-yl]benzyl}-1H-indazol-5-yl)methanamine]
31 | ≤ 10 nM | CC1CCCN1Cc1cnc(-c2ccc(Cn3cnc4ccccc43)cc2)o1 (centres unmarked) [Example 105, 1-(4-{5-[(2-methylpyrrolidin-1-yl)methyl]-1,3-oxazol-2-yl}benzyl)-1H-benzimidazole]
32 | ≤ 10 nM | C[C@H]1CCCN1Cc1cnc(-c2ccc(Cn3cnc4ccccc43)cc2)o1 [Example 106, 1-[4-(5-{[(2S)-2-methylpyrrolidin-1-yl]methyl}-1,3-oxazol-2-yl)benzyl]-1H-benzimidazole]
33 | ≤ 10 nM | FC(F)(F)c1nc2ccccc2n1Cc1ccc(-c2nc(CN3CCCC3)co2)cc1 [Example 114]
34 | ≤ 10 nM | c1ccc(-c2nc3ccccc3n2Cc2ccc(-c3nc(CN4CCCC4)co3)cc2)cc1 [Example 115, 2-phenyl-1-{4-[4-(pyrrolidin-1-ylmethyl)-1,3-oxazol-2-yl]benzyl}-1H-benzimidazole]
35 | ≤ 10 nM | C[C@H]1CCCN1Cc1coc(-c2ccc(Cn3c(-c4ccccc4)nc4ccccc43)cc2)n1 [Example 117, 1-[4-(4-{[(2S)-2-methylpyrrolidin-1-yl]methyl}-1,3-oxazol-2-yl)benzyl]-2-phenyl-1H-benzimidazole]
